Reference: PubChem BioAssay AID330 (DTP/NCI, 2004)
“And” between values parts separate entries of the source, which are not always exact repeats. Equal entries are not always repeated. Toxic doses and inconclusive results are not listed. The calls were made as follows: active = survival T/C of 150% or more; inactive = T/C below 125% in these data.

System: P388 leukemia ip, CD2F1 mice, survival T/C
Assay: NCI In Vivo Anticancer Drug Screen. Data for tumor model P388 Leukemia (intraperitoneal) in CD2F1 (CDF1) mice
Settings: endpoint: median survival time, higher = longer survival
How it was run: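 Mice carrying the transplanted tumor received test compound or vehicle. Survival was recorded in each group, and the value is the treated-group measurement divided by that of the vehicle-treated control group.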

[1] = dose: 60.0 mg/kg/injection, schedule: Q01DX005 (ip), vehicle: saline with Tween-80
[2] = dose: 120.0 mg/kg/injection, schedule: Q01DX005 (ip), vehicle: saline with Tween-80
[3] = dose: 240.0 mg/kg/injection, schedule: Q01DX005 (ip), vehicle: saline with Tween-80
[4] = dose: 60.0 mg/kg/injection, schedule: Q01DX005 (ip), vehicle: Klucel (hydroxypropylcellulose) (HPC)
[5] = dose: 50.0 mg/kg/injection, schedule: Q01DX009 (ip), vehicle: saline with Tween-80
[6] = dose: 100.0 mg/kg/injection, schedule: Q01DX009 (ip), vehicle: saline with Tween-80
[7] = dose: 200.0 mg/kg/injection, schedule: Q01DX009 (ip), vehicle: saline with Tween-80
[8] = dose: 400.0 mg/kg/injection, schedule: Q01DX009 (ip), vehicle: saline with Tween-80
[9] = dose: 50.0 mg/kg/injection, schedule: Q01DX005 (ip), vehicle: saline
[10] = dose: 100.0 mg/kg/injection, schedule: Q01DX005 (ip), vehicle: saline
[11] = dose: 15.0 mg/kg/injection, schedule: Q01DX005 (ip), vehicle: Klucel (hydroxypropylcellulose) (HPC)
[12] = dose: 50.0 mg/kg/injection, schedule: Q01DX009 (ip), vehicle: Klucel (hydroxypropylcellulose) (HPC)
[13] = dose: 100.0 mg/kg/injection, schedule: Q01DX009 (ip), vehicle: Klucel (hydroxypropylcellulose) (HPC)
[14] = dose: 12.5 mg/kg/injection, schedule: Q01DX009 (ip), vehicle: Klucel (hydroxypropylcellulose) (HPC)
[15] = dose: 25.0 mg/kg/injection, schedule: Q01DX009 (ip), vehicle: Klucel (hydroxypropylcellulose) (HPC)
[16] = dose: 50.0 mg/kg/injection, schedule: Q01DX009 (ip), vehicle: suspension in saline
[17] = dose: 100.0 mg/kg/injection, schedule: Q01DX009 (ip), vehicle: suspension in saline
[18] = dose: 200.0 mg/kg/injection, schedule: Q01DX009 (ip), vehicle: suspension in saline

Measured: T/C

CCn1c(Cl)c(/C=C(/NC(=O)c2ccccc2)C(=O)O)c2ccccc21
inactive: dose: 100.0 mg/kg/injection, schedule: Q01DX001 (ip), vehicle: Klucel (hydroxypropylcellulose) (HPC) 100 % of control | dose: 200.0 mg/kg/injection, schedule: Q01DX001 (ip), vehicle: Klucel (hydroxypropylcellulose) (HPC) 94 % of control | dose: 400.0 mg/kg/injection, schedule: Q01DX001 (ip), vehicle: Klucel (hydroxypropylcellulose) (HPC) 94 % of control

COC(=O)c1cccc2c([N+](=O)[O-])c(NC(C)=O)cc(C(=O)OC)c12
inactive: [1] 100 % of control | [2] 104 % of control | [3] 100 % of control

CC(=O)Nc1ccc(S(=O)(=O)N/N=c2/sc3ccccc3n2C)cc1
inactive: [1] 100 % of control | [2] 92 % of control | [3] 95 % of control

COC(=O)N1C(c2ccccc2)C=CC(c2ccccc2)N1C(=O)OC (centres undefined)
inactive: [4] 103 % of control | dose: 120.0 mg/kg/injection, schedule: Q01DX005 (ip), vehicle: Klucel (hydroxypropylcellulose) (HPC) 96 % of control | dose: 240.0 mg/kg/injection, schedule: Q01DX005 (ip), vehicle: Klucel (hydroxypropylcellulose) (HPC) 96 % of control

CN(C)c1nc(N(C)C)n2nc(-c3ccccc3[N+](=O)[O-])nc2n1
inactive: dose: 100.0 mg/kg/injection, schedule: Q04DX003 (ip), vehicle: saline with Tween-80 104 % of control | dose: 200.0 mg/kg/injection, schedule: Q04DX003 (ip), vehicle: saline with Tween-80 96 % of control | dose: 400.0 mg/kg/injection, schedule: Q04DX003 (ip), vehicle: saline with Tween-80 95 % of control

Cc1ccc(O)c(N)c1
inactive: [5] 94 % of control | dose: 50.0 mg/kg/injection, schedule: Q01DX009 (ip), vehicle: saline 98 % of control | [6] 100 % of control | dose: 100.0 mg/kg/injection, schedule: Q01DX009 (ip), vehicle: saline 104 % of control and 119 % of control | [7] 105 % of control | dose: 200.0 mg/kg/injection, schedule: Q01DX009 (ip), vehicle: saline 108 % of control and 95 % of control | [8] 121 % of control

N#C/C(=C/c1ccc(Cl)cc1)C(N)=O
inactive: dose: 25.0 mg/kg/injection, schedule: Q01DX001 (ip), vehicle: saline with Tween-80 102 % of control | dose: 50.0 mg/kg/injection, schedule: Q01DX001 (ip), vehicle: saline with Tween-80 104 % of control | dose: 100.0 mg/kg/injection, schedule: Q01DX001 (ip), vehicle: saline with Tween-80 97 % of control | dose: 200.0 mg/kg/injection, schedule: Q01DX001 (ip), vehicle: saline with Tween-80 97 % of control

Nc1ccc2c(n1)NCC/C2=N\Nc1ccccc1
inactive: [5] 115 % of control | [6] 96 % of control | [7] 100 % of control

C#CCC(N)C(=O)O (centres undefined)
inactive: dose: 12.5 mg/kg/injection, schedule: Q01DX005 (ip), vehicle: saline 107 % of control | dose: 25.0 mg/kg/injection, schedule: Q01DX005 (ip), vehicle: saline 111 % of control | [9] 100 % of control and 106 % of control | [10] 108 % of control

CCOC(=O)C1=C(C(=O)c2cccc3ccccc23)C(c2cccc([N+](=O)[O-])c2)C(C(=O)c2cccc3ccccc23)=C(C(=O)OCC)N1
inactive: [11] 97 % of control | dose: 30.0 mg/kg/injection, schedule: Q01DX005 (ip), vehicle: Klucel (hydroxypropylcellulose) (HPC) 97 % of control | [4] 99 % of control

O=S(=O)(O)O.[O]=[V]
inactive: dose: 6.25 mg/kg/injection, schedule: Q01DX009 (ip), vehicle: saline 90 % of control | dose: 12.5 mg/kg/injection, schedule: Q01DX009 (ip), vehicle: saline 86 % of control | dose: 12.5 mg/kg/injection, schedule: Q04DX003 (ip), vehicle: saline 100 % of control | dose: 25.0 mg/kg/injection, schedule: Q01DX009 (ip), vehicle: saline 90 % of control | dose: 25.0 mg/kg/injection, schedule: Q04DX003 (ip), vehicle: saline 100 % of control

Cc1cc(O)c(N=Nc2cc(C)c(C)cc2[N+](=O)[O-])cc1C
inactive: [12] 109 % of control | [13] 109 % of control | dose: 200.0 mg/kg/injection, schedule: Q01DX009 (ip), vehicle: Klucel (hydroxypropylcellulose) (HPC) 101 % of control

CCCCCCCCCCCC1=C(O)C(=O)C(CC2=C(O)C(=O)C(CCCCCCCCCCC)=C(O)C2=O)=C(O)C1=O
inactive: dose: 25.0 mg/kg/injection, schedule: Q01DX005 (ip), vehicle: Klucel + Tween-80 97 % of control | dose: 50.0 mg/kg/injection, schedule: Q01DX005 (ip), vehicle: Klucel (hydroxypropylcellulose) (HPC) 86 % of control | dose: 50.0 mg/kg/injection, schedule: Q01DX005 (ip), vehicle: Klucel + Tween-80 91 % of control | dose: 100.0 mg/kg/injection, schedule: Q01DX005 (ip), vehicle: Klucel + Tween-80 91 % of control | dose: 200.0 mg/kg/injection, schedule: Q01DX005 (ip), vehicle: Klucel (hydroxypropylcellulose) (HPC) 89 % of control

COC(C)(C)O/N=C(\C[P+](c1ccccc1)(c1ccccc1)c1ccccc1)c1ccc(Cl)cc1
inactive: dose: 6.25 mg/kg/injection, schedule: Q01DX009 (ip), vehicle: Klucel (hydroxypropylcellulose) (HPC) 109 % of control | [14] 106 % of control | [15] 99 % of control

CSC1=NSC(c2ccccc2)=C(c2ccccc2)S1
inactive: [1] 111 % of control | [2] 122 % of control | [3] 119 % of control

Nc1nc(CCl)nc(Nc2ccccc2)n1
inactive: [14] 101 % of control | [15] 101 % of control | [12] 101 % of control | [13] 99 % of control

N#C/C(OC1OC(CO)C(O)C(O)C1O)=C(\C=C/C(=O)O)CC(=O)O (centres undefined)
inactive: [9] 105 % of control | [10] 106 % of control | dose: 200.0 mg/kg/injection, schedule: Q01DX005 (ip), vehicle: saline 105 % of control

COc1nc2c(nc(N)n2C2OC(COC(C)=O)C(OC(C)=O)C(OC(C)=O)C2OC(C)=O)c(=O)n1C (centres undefined)
inactive: dose: 60.0 mg/kg/injection, schedule: Q01DX005 (ip), vehicle: saline 92 % of control | dose: 240.0 mg/kg/injection, schedule: Q01DX005 (ip), vehicle: saline 92 % of control

CCOc1cc(=O)cc2n(-c3cc(OCC)c(OC)c(OCC)c3)c3ccccc3nc1-2
inactive: [16] 101 % of control | [17] 101 % of control | [18] 90 % of control

COC(=O)C(=O)c1c(C(=O)OC)nc2nnc(N)n2c1-c1cccc([N+](=O)[O-])c1
inactive: dose: 15.0 mg/kg/injection, schedule: Q01DX005 (ip), vehicle: saline with Tween-80 92 % of control | dose: 30.0 mg/kg/injection, schedule: Q01DX005 (ip), vehicle: saline with Tween-80 91 % of control | [1] 88 % of control | [2] 86 % of control

Nc1ccccc1-c1cncnc1N
inactive: [6] 98 % of control | [7] 101 % of control | [8] 106 % of control

CN(C)CCC1(C)OCCC2=C1Cc1ccccc12 (centres undefined)
inactive: [5] 91 % of control | [6] 99 % of control

O=C1CSC(=S)N1c1ccc(F)cc1
inactive: [16] 106 % of control | [17] 100 % of control | [18] 90 % of control

CCCNC12CN3CN(CN(C3)C1)C2
inactive: dose: 100.0 mg/kg/injection, schedule: Q04DX003 (ip), vehicle: saline 99 % of control | dose: 200.0 mg/kg/injection, schedule: Q04DX003 (ip), vehicle: saline 100 % of control | dose: 400.0 mg/kg/injection, schedule: Q04DX003 (ip), vehicle: saline 95 % of control

O=C([O-])CC(=O)[O-].[Cu+2].[OH3+].[OH3+]
inactive: [11] 99 % of control

CN1C=CC2C(C#N)CC2C1=O (centres undefined)
inactive: dose: 100.0 mg/kg/injection, schedule: Q04DX002 (ip), vehicle: saline with Tween-80 101 % of control | dose: 200.0 mg/kg/injection, schedule: Q04DX002 (ip), vehicle: saline with Tween-80 110 % of control | dose: 400.0 mg/kg/injection, schedule: Q04DX002 (ip), vehicle: saline with Tween-80 110 % of control

Cn1c(=O)[nH]c(N)c(NC=O)c1=O
inactive: dose: 50.0 mg/kg/injection, schedule: Q01DX005 (ip), vehicle: saline with Tween-80 103 % of control | dose: 100.0 mg/kg/injection, schedule: Q01DX005 (ip), vehicle: saline with Tween-80 101 % of control | dose: 200.0 mg/kg/injection, schedule: Q01DX005 (ip), vehicle: saline with Tween-80 101 % of control
